According to patent US20130289083A1, “IDO Inhibitors” (priority 2007, published 2013):
Where two headings read alike, the source gives them in different places.

What was measured:
murine IDO = biological target: T1, murine IDO (Mus musculus, UniProt P28776); assay: Cell based IDO/kynurenine assay in 293-T-Rex cells expressing murine IDO; conditions: cells expressing murine IDO, read-out: mIDO EC50
T1 construct: expressed in transfected cells; host or cells: 293-T-REx cells (Invitrogen), doxycycline-inducible CMV-tet promoter
Description: (§1) Transfected cells were selected in DBZ medium (DMEM, 10% FBS, 1× Penicillin+Streptomycin, 2 mM L-glutamine, 5 μg/mL blasticidin and 25 μg/ml Zeocin) at 37° C. with a 5% CO2 in air atmosphere. Individual clones were isolated by limiting dilution cloning from these populations.
The cells incubated in Neutral medium serve as negative control of the assay. The cells incubated in Induction medium and without inhibitor serve as the positive control of the assay. The incubation is carried out for 16 h at 37° C. in a cell culture incubator. 200 μL of medium are transferred to U-bottom polypropylene 96-well plates containing 25 μL of 30% TCA, incubated 30 minutes at 60° C. and centrifuged at 3400 g for 5 minutes. 150 μL of the clear supernatant is transferred to a polystyrene 96-well plate containing 50 μL of 4% (w/v) of p-dimethylaminobenzaldehyde in acetic acid, incubated for 10 min. Kynurenine concentration is determined by measuring the absorbance at 480 nm.

[1] = biological target: purified human IDO protein (Homo sapiens, UniProt P14902); assay: Enzymatic IDO assay (kynurenine production, absorbance 480 nm); conditions: enzymatic activity
human IDO = human IDO (Homo sapiens, UniProt P14902); assay: Cell based IDO/kynurenine assay in IDO-293-T-Rex cells; conditions: kynurenine production, read-out: hIDO EC50
Description: 293-T-REx™ cells (Invitrogen) constitutively express a tet operator binding repressor protein and are maintained in DMEM, 10% FBS, 1× Penicillin+Streptomycin, 2 mM L-glutamine, 5 μg/mL blasticidin at 37° C. with a 5% CO2 in air atmosphere and typically split prior to confluency. Cells were passed by splitting the culture 1/10—by removing media by aspiration, washing 1× with PBS, incubating with 0.25% trypsin/EDTA until the cells detach, disbursing the cells in fresh growth media, and plating at 1/10 dilutions in fresh growth media. For long term cryopreservation, cells are detached from the plate as described above, collected by centrifugation, resuspended in freeze medium (growth medium, 10% DMSO), stored in 1.8 mL cyropreservation vials (˜2−5×10^6 cells per vial), in liquid nitrogen vapor storage tanks.
as §1, with “IDOl-expressing 293-T-Rex™ cell lines were generated by stable transfection of plasmid pcDNA-tetO-IDO expressing human IDO or murine IDO under the control of the doxycycline-inducible CMV-tet promoter. Transfected” for “Transfected”
[…]. The cells incubated in Neutral medium serve as negative control of the assay. The cells incubated in Induction medium and without inhibitor serve as the positive control of the assay. The incubation is carried out for 16 h at 37° C. in a cell culture incubator. 200 μL of medium are transferred to U-bottom polypropylene 96-well plates containing 25 μL of 30% TCA, incubated 30 minutes at 60° C. and centrifuged at 3400 g for 5 minutes. 150 μL of the clear supernatant is transferred to a polystyrene 96-well plate containing 50 μL of 4% (w/v) of p-dimethylaminobenzaldehyde in acetic acid, incubated for 10 min. Kynurenine concentration is determined by measuring the absorbance at 480 nm.
The conditions of the assay were as described in the examples.

[2] = hIDO IC50, Table 15, recombinant human IDO
[3] = Table 15, 293T cells expressing human IDO
[4] = hIDO IC50, Table 16, recombinant human IDO
[5] = Table 16, 293T cells expressing human IDO
[6] = hIDO IC50, recombinant human IDO, values reported in ranges
[7] = 293T cell line stably expressing human IDO, values reported in ranges
[8] = read-out: hIDO IC50, recombinant human IDO, values reported in ranges

Chain of purified human IDO protein (P14902 whole entry P110S/E119G): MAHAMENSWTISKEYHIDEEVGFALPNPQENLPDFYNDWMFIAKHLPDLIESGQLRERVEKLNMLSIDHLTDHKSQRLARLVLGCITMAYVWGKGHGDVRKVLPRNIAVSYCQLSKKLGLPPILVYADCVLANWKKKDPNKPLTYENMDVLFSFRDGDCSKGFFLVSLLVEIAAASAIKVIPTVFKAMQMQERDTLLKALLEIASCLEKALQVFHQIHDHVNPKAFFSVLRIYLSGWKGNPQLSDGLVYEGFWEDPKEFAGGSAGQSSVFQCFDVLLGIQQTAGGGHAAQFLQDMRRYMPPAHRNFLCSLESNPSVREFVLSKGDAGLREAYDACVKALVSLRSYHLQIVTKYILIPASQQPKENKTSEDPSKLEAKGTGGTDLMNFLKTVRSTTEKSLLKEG
T1 sequence (P28776 whole entry): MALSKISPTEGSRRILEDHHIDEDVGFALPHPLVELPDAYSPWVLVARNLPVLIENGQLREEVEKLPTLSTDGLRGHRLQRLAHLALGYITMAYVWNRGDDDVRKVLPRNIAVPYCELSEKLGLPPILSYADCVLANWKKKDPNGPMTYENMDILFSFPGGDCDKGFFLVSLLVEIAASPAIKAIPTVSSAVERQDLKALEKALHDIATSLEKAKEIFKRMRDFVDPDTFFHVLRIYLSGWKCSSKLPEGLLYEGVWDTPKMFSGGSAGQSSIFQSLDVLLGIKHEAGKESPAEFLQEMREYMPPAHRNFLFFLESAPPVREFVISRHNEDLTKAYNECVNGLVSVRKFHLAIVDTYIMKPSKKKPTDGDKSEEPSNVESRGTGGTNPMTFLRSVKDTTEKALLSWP
Chain of human IDO (P14902 whole entry): as the sequence (P14902 whole entry P110S/E119G) above, with S110P, G119E counted along it

## NOCc1nc2ccccc2s1 [compound 1749, O-(benzo[d]thiazol-2-ylmethyl)hydroxylamine]
Murine IDO; Table 15
  EC50: < 10 µM
[1]; [2]
  IC50: < 10 µM
Human IDO; [3]
  EC50: < 10 µM

## NOCc1ccccc1Br [compound 1675, O-(2-bromobenzyl)hydroxylamine]
Murine IDO; Table 16
  EC50: < 10 µM
[1]; [4]
  IC50: < 10 µM
Human IDO; [5]
  EC50: < 10 µM

## NOC1CCCCO1 (stereo not drawn) [compound 1669, O-(tetrahydro-2H-pyran-2-yl)hydroxylamine]
Murine IDO; Table 16
  EC50: < 10 µM
[1]; [4]
  IC50: 10 to 100 µM
Human IDO; [5]
  EC50: < 10 µM

## NOCC1CCc2ccccc2O1 (stereo not drawn) [compound 1768, O-(chroman-2-ylmethyl)hydroxylamine]
Murine IDO; Table 15
  EC50: < 10 µM
[1]; [2]
  IC50: < 10 µM
Human IDO; [3]
  EC50: < 10 µM

## NOCc1ccc2c(c1)OCO2 [compound 1744, O-(benzo[d][1,3]dioxol-5-ylmethyl)hydroxylamine]
Murine IDO; Table 15
  EC50: 10 to 100 µM
[1]; [2]
  IC50: < 10 µM
Human IDO; [3]
  EC50: < 10 µM

## NOCc1cccc(-c2ccc(Cl)cc2)c1 [compound 1878, O-((4′-chlorobiphenyl-3-yl)methyl)hydroxylamine]
Murine IDO; Table 15
  EC50: 10 to 100 µM
[1]; [2]
  IC50: < 10 µM
Human IDO; [3]
  EC50: < 10 µM

## NOCc1cccc2ccccc12 [compound 1767, O-(naphthalen-1-ylmethyl)hydroxylamine]
Murine IDO; Table 16
  EC50: 10 to 100 µM
[1]; [4]
  IC50: < 10 µM
Human IDO; [5]
  EC50: < 10 µM

## CSC(=S)NCCc1ccc(C)cc1C [compound 66, Methyl 2,4-dimethylphenethylcarbamodithioate]
[1]; [6]
  IC50: 100 to 1000 µM
Human IDO; [7]
  EC50: 100 to 1000 µM

## NOCc1cc(Cl)ccc1-c1ccsc1 [compound 1932, O-(5-chloro-2-(thiophen-3-yl)benzyl)hydroxylamine]
[1]; [2]
  IC50: < 10 µM
Human IDO; [3]
  EC50: < 10 µM

## Cc1ccc(CCSC(=S)NCCc2c[nH]c3ccccc23)cc1 [compound 9, 4-Methylphenethyl 2-(1H-indol-3-yl)ethylcarbamodithioate]
[1]; [6]
  IC50: 100 to 1000 µM
Human IDO; [7]
  EC50: 20 to 100 µM

## C=CCOc1ccc(CC)c(OCC=C)c1 [compound 252, 2,4-bis(allyloxy)-1-ethylbenzene]
[1]; [6]
  IC50: 100 to 1000 µM
Human IDO; [7]
  EC50: 20 to 100 µM

## Nc1ccc2[nH]cc(C(=O)O)c2c1 [compound 352, 5-amino-1H-indole-3-carboxylic acid]
[1]; [6]
  IC50: 100 to 1000 µM
Human IDO; [7]
  EC50: 1000 to 10000 µM

## Fc1ccccc1CCSC(=S)NCCc1c[nH]c2ccccc12 [compound 12, 2-fluorophenethyl 2-(1H-indol-3-yl)ethylcarbamodithioate]
[1]; [6]
  IC50: 100 to 1000 µM
Human IDO; [7]
  EC50: 100 to 1000 µM

## S=C(NC1CSc2ccccc2C1)SCc1ccc2ccccc2c1 (stereo not drawn) [compound 64, naphhalen-2-ylmethyl thiochroman-3-ylcarbamodithioate]
[1]; [8]
  IC50: 100 to 1000 µM
Human IDO; [7]
  EC50: 20 to 100 µM

## NOC(CCC1CCCCC1)c1ccccc1 (stereo not drawn) [compound 1938, O-(3-cyclohexyl-1-phenylpropyl)hydroxylamine]
[1]; [2]
  IC50: < 10 µM
Human IDO; [3]
  EC50: < 10 µM

## CSC(=S)NCCc1c[nH]c2ccc([N+](=O)[O-])cc12 [compound 40]
[1]; [8]
  IC50: 100 to 1000 µM
Human IDO; [7]
  EC50: 100 to 1000 µM

## S=C(NCCc1c[nH]c2ccccc12)SCCc1ccccc1 [compound 1, Phenethyl 2-(1H-indol-3-yl)ethylcarbamodithioate]
[1]; [6]
  IC50: 100 to 1000 µM
Human IDO; [7]
  EC50: 100 to 1000 µM

## O=C(Cc1csc(=S)[nH]1)NCc1ccc2ccccc2c1 [compound 701, N-(Naphthalen-2-ylmethyl)-2-(2-thioxo-2,3-dihydrothiazol-4-yl)acetamide]
[1]; [6]
  IC50: 100 to 1000 µM
Human IDO; [7]
  EC50: 100 to 1000 µM

## NC(=O)C(=O)NNc1ccccc1 [compound 312, 2-oxo-2-(2-phenylhydrazinyl)acetamide]
[1]; [6]
  IC50: < 20 µM
Human IDO; [7]
  EC50: < 20 µM

## Cc1ccc2cc(CSC(=S)NCCc3c[nH]c4ccccc34)ccc2n1 [compound 38, (2-Methylquinolin-6-yl)methyl 2-(1H-indol-3-yl)ethylcarbamodithioate]
[1]; [6]
  IC50: 100 to 1000 µM
Human IDO; [7]
  EC50: 20 to 100 µM

## O=C1CSC(=S)N1Cc1c[nH]c2ccccc12 [compound 78, 3-((1H-indol-3-yl)methyl)-2-thioxothiazolidin-4-one]
[1]; [6]
  IC50: 100 to 1000 µM
Human IDO; [7]
  EC50: 100 to 1000 µM

## CC(=O)N1C(=O)/C(=C2/SC(=S)NC2=O)c2ccccc21 [compound 149]
[1]; [6]
  IC50: 100 to 1000 µM
Human IDO; [7]
  EC50: 20 to 100 µM
